Assay results as given in patent publication US20220265690A1, “USE OF SOTAGLIFLOZIN FOR THE TREATMENT OF PATIENTS WITH TYPE 2 DIABETES MELLITUS AND MODERATE RENAL IMPAIRMENT” (Lexicon Pharmaceuticals, Inc., priority 2019, published 2022).

Assays:
[1] = tested on: patients with type 2 diabetes; settings: phase II trials; cited from earlier work
[2] = tested on: patients with T2D and documented moderate renal insufficiency (CKD 3A, 3B); experiment: Multicentre, double-blind, placebo-controlled clinical study of sotagliflozin 200 mg and 400 mg once daily; HbA1c change at Week 26; assay type: in vivo; settings: for HbA1c (%) Change from baseline to Week 26 LS Mean difference (SE) vs. placebo / HbA1c (%) Change from baseline to Week 26 LS Mean (SE) / HbA1c (%) Week 26 Mean (SD) / HbA1c (%) Week 26 Median: overall ITT population; for HbA1c (%) Change from baseline to Week 26 LS Mean (SE): ANCOVA, multiple imputation; for LS mean change in HbA1c from baseline to W26 / mean HbA1c level reached at W26: sotagliflozin 400 mg
Procedure: The efficacy, relative to a placebo, […], was evaluated in multicentre, double-blind clinical with random distribution in three groups of treatment (group treated with sotagliflozin 200 mg daily dose, group treated with sotagliflozin 400 mg daily dose, and group treated with a placebo) of patients. The selected patients were adult patients with T2D (drug-naïve or on antidiabetic therapy) and documented moderate renal insufficiency defined by an eGFR (based on the 4 variable Modification of Diet in Renal Disease [MDRD] equation) of ≥30 and <60 mL/min/1.73 m^2 (CKD 3A, 3B). The study was conducted as follows: • Screening Phase—Visit 1 (up to 2 weeks) • Run-in phase (Visit 2), lasted 2 weeks. Patients were treated in a single-blind manner with two placebo tablets (identical to sotagliflozin 200 mg in appearance) administered once daily during the Run-in phase, starting from Visit 2 • Double-blind Treatment Period (Day 1 to Week 26): Eligible patients will be randomized on Day 1 (Visit 3). Following randomization, patients will be treated in a double-blind manner for 52 weeks. A total of 787 patients ≥18 years of age (or ≥legal age of the majority, whichever is greater) were randomly assigned 1:1:1 to the following 3 treatment groups: • Placebo, given as two (2) placebo tablets (identical to sotagliflozin 200 mg in appearance), once daily, before the first meal of the day • Sotagliflozin 200 mg, given as 2 tablets: 1 sotagliflozin 200 mg tablet and 1 placebo tablet (identical to sotagliflozin 200 mg in appearance), once daily • Sotagliflozin 400 mg, given as two (2) 200 mg tablets, once daily, before the first meal of the day. • Double-blind Extension Period (Week 27 to Week 52): • Follow-up Period Following the last dose of the IMP: a 4 week post-treatment visit to collect safety and some efficacy information. […] Efficacy analysis was based on the intent-to-treat (ITT) population using efficacy assessments obtained during the study, including those obtained after investigational medicinal product (IMP) discontinuation or introduction of rescue therapy. The ITT population consisted of all randomized patients. The primary efficacy endpoint was analyzed using an analysis of covariance (ANCOVA) model. The ANCOVA model included treatment groups (sotagliflozin 200 mg, sotagliflozin 400 mg, placebo), randomization stratum of HbA1c (≤8.5%, >8.5%), randomization stratum of SBP (<130, ≥130 mmHg), randomization stratum of CKD stage (3A, 3B), and country as fixed effects, and baseline HbA1c value as a covariate.

[3] = sotagliflozin 200 mg once daily
[4] = sotagliflozin 400 mg once daily
[5] = sotagliflozin 400 mg once daily, listed as sotagliflozin

Compound: CCOc1ccc(Cc2cc([C@@H]3O[C@H](SC)[C@@H](O)[C@H](O)[C@H]3O)ccc2Cl)cc1 [Sotagliflozin, sotagliflozin]
- glycemic control (reduction in A1C) [1]: significantly improve glycemic control
- HbA1c (%) Change from baseline to Week 26 LS Mean difference (SE) vs. placebo ([2]; sotagliflozin 200 mg once daily, 95% CI (−0.244, 0.054), p-value 0.2129): −0.09 (0.076) %
- HbA1c (%) Change from baseline to Week 26 LS Mean (SE) [2, 3]: −0.32 (0.060) %
- HbA1c (%) Week 26 Mean (SD) [2, 3]: 7.82 (0.99) %
- HbA1c (%) Week 26 Median [2, 3]: 7.70%
- HbA1c (%) Change from baseline to Week 26 LS Mean difference (SE) vs. placebo ([2]; sotagliflozin 400 mg once daily, 95% CI (−0.382, −0.082), p-value 0.0024): −0.23 (0.076) %
- HbA1c (%) Change from baseline to Week 26 LS Mean (SE) [2, 4]: −0.46 (0.060) %
- HbA1c (%) Change from baseline to Week 26 LS Mean (SE) [2, 5]: −0.46%
- HbA1c (%) Week 26 Mean (SD) [2, 4]: 7.72 (1.00) %
- HbA1c (%) Week 26 Median [2, 4]: 7.60%
- HbA1c (%) Week 26 Mean (SD) [2, 5]: 7.72%
- LS mean change in HbA1c from baseline to W26 ([2]; CKD3A population): −0.54%
- mean HbA1c level reached at W26 ([2]; CKD3A population): 7.62%
- LS mean change in HbA1c from baseline to W26 ([2]; CKD3B population): −0.37%
- mean HbA1c level reached at W26 ([2]; CKD3B population): 7.82%
